Test results taken from ChEMBL document CHEMBL1124449, “Synthesis and evaluation of the pharmacological activity of rigid analogues of sympathomimetic catecholamines derived from bicyclo[2.2.1]heptane” (J Med Chem, 1989).
Active and inactive are the calls of the source.

Columns and labels:
[1] = Stimulation or blockade of Alpha adrenergic receptor on rat vas deferens up to a dose of 10e-4 M; type: tissue-based
[2] = target: Beta-2 adrenergic receptor (Canis lupus familiaris) (UniProt P54833); experiment: Stimulation or blockade of Beta-2 adrenergic receptor on guinea pig trachea up to a dose of 10e-4 M; conditions: Cavia porcellus; target entry is the homologue from another species
[3] = target: Beta-1 adrenergic receptor (Cavia porcellus) (UniProt B0FL73); experiment: Stimulation or blockade of Beta-1 adrenergic receptor on guinea pig atria up to a dose of 10e-4 M

Measured: Activity

Beta-2 adrenergic receptor (Canis lupus familiaris), sequence (P54833 whole entry, looked up): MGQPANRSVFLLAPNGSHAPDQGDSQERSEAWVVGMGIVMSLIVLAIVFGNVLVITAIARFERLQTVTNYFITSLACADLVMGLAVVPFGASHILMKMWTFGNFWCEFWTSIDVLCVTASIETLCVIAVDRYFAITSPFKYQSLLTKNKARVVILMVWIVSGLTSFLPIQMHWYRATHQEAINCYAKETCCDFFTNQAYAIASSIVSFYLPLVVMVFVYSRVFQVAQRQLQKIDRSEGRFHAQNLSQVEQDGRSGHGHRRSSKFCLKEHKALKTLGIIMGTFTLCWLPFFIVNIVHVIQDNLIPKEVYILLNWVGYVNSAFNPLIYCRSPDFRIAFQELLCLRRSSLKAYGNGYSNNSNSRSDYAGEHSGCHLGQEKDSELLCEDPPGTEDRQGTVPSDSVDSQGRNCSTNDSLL
Beta-1 adrenergic receptor (Cavia porcellus), sequence (B0FL73 1-467): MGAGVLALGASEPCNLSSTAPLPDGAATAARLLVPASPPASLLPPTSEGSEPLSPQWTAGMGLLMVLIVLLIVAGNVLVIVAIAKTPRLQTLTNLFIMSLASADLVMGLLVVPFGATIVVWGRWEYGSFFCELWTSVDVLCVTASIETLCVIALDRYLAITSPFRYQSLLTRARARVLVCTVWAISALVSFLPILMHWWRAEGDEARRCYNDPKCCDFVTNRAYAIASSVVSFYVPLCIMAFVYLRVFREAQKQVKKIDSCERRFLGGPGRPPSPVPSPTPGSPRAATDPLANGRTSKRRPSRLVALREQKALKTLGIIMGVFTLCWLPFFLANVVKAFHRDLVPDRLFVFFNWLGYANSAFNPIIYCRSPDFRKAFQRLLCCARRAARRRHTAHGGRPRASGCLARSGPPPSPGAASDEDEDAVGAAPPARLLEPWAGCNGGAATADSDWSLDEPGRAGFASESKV

CC(C)NC1C2CCC(C2)C1(O)c1ccc(O)c(O)c1 (stereo unspecified)
inactive: all assays above

NC1C2CCC(C2)C1(O)c1ccc(O)c(O)c1 (stereo unspecified)
inactive: all assays above
